According to patent US20260345584A1, “METHODS AND PHARMACEUTICAL COMPOSITIONS FOR TREATING CHEMOTHERAPY-INDUCED PERIPHERAL NEUROPATHY WITH EG5 INHIBITORS” (UNIVERSITY OF MIAMI, priority 2023, published 2026):

Columns and labels:
nox1 = experiment: Nox1 immunofluorescence: subcellular translocation in keratinocytes; assay type: in vivo, zebrafish; settings: EMD534085 alone, 96 hr
Method: The stock solution was divided into 20-30 μl aliquots and stored at −20 °C until use (maximal 6 months). Immediately prior to use, paclitaxel was diluted in Ringer's solution and added to dechorionated larval zebrafish. The larval fish were placed individually or in small groups into wells of a 12-well plate containing the treatment solutions. The control group was 0.05% DMSO. Plates were incubated at 28.5 °C and protected from light. Treatment lengths are indicated in the Drawings, Description of the Drawings, and Examples where appropriate. […] EMD534085, Eg5 inhibitor (MedChemExpress, Cat. No. HY-15000) was diluted in 100% DMSO to make a 10 mM stock solution and stored at −20 °C. […] The solutions were exchanged every 48 hr. […]
Measurements were determined by measuring fluorescence intensity in Fiji using single slice and single channel modes. First, a line using the line tool was placed along the plasma membrane that was clearly distinguishable from the cytoplasm due to increased fluorescence compared with the cytoplasm in all treatment groups. The measurement tool was subsequently selected to measure the mean fluorescence intensity. […] To determine the mean cytoplasmic fluorescence intensity, nuclei were first overlaid with Nox1 fluorescence to ensure the exclusion of nuclear measurements. […] The fluorescence data was exported to Excel and the ratios calculated.

Eg5 = Eg5 / phospho-Eg5 staining in mouse skin; assay type: in vivo; settings: single injection, 20 mg/kg; basal and suprabasal keratinocytes
Method: The mice in each cage were randomly allocated to different treatment groups. Food and water were available ad libitum and experiments were performed during the light cycle (7:00 am to 7:00 pm). Animals were euthanized via CO2 asphyxiation, followed by cervical dislocation. […] The animal's husbandry conformed with established NIH and Institutional Animal Care and Use Committee (IACUC) approved protocols.
Paws and back skin were collected at predetermined time points, placed in 10% formalin, and stored overnight at 4 °C. Samples were embedded in paraffin and sectioned at 7 μm, deparaffinized, washed with PBS, and incubated at room temperature for 5 min in 0.1% Triton X-100 in PBS and then blocked for 30 min (5% BSA). Sections were incubated with primary antibody diluted in blocking solution, overnight at 4 °C in a humidity chamber. Following PBS washes, sections were incubated for 1 h at room temperature with a secondary antibody. Tissues were mounted and assessed for staining. Antibodies used were against detyrosinated tubulin Millipore AB3201, p-KIF11 Invitrogen PA5-38647, alpha-tubulin Proteintech 66031-1-Ig, mouse Alexa Fluor 488 Invitrogen A21202, and rabbit Alexa flour 546 Invitrogen A10040. DAPI was used for nuclei counterstaining. […]

[1] = system: Tau-Bfp2 microtubules in keratinocytes; experiment: Tau-Bfp2-stabilized microtubules in keratinocytes; assay type: in vivo, zebrafish; settings: 96 hr
Method: Fish were anesthetized in 2-phenoxyethanol (1:1000) in Ringer's solution prior to imaging and mounted in 1.2% agarose. EB3-GFP and Tau-Bfp2 were imaged with a scan speed kept at the maximum level in single slice mode with […] for a total of 60s to capture microtubule dynamics. h2a:H2A-GFP time-lapse recordings were produced (Zeiss LSM880 AiryScan confocal microscope) with 1 μm sections recorded every 10 min for 12 hr using 800×800 pixels. All other live fish were imaged using 1024×1024 pixels.
Microtubule analyses was performed in Imaris 9.5.1 (Bitplane) by measuring the straightness of filaments (microtubules) using the “Filaments—Dendrite Straightness” tool, which was defined as the ratio between […] between two branch points (h). The value was always smaller than 1 since the Dendrite Straightness of 1 defines straight objects.
EB3-GFP tracking was done in Fiji using the MTrackJ plugin to trace microtubules over time and create Kymographs, measure the velocity, track length, and comet duration. Tracking was also performed using the Spots and Surface tools in Imaris. Settings were initially automatically detected to fit the fluorescence and subsequently modified manually for improved fit. Settings were maintained between treatment groups.
Tau therefore seems to prevent paclitaxel-induced dfMT formation.
Thus EB3-GFP plus-ends appeared in part to grow along pre-existing stable microtubules, which could be a means to maintain cellular organization.

Row | Compound | Nox1 Membrane:cytoplasmic ratio (nox1) | Nox1 Nucleus:cytoplasmic ratio (nox1) | total and phospho-Eg5 levels (Eg5) | EB3-GFP puncta co-localized with Tau-Bfp2 ([1]; Tau-Bfp2 + 22 μM paclitaxel) | velocity of EB3-GFP plus-ends ([1]; Tau-Bfp2 + paclitaxel) | microtubule straightness (1=straight, 0=curved) ([1]; strong Tau-Bfp2 + paclitaxel)
1 | CN(C)CCNC(=O)NC[C@H]1CC[C@@H]2[C@H](O1)c1cc(C(F)(F)F)ccc1N[C@H]2c1ccccc1 [EMD534085] | 1.7±0.1 | 1.36±0.08 |  |  |  | 
2 | CC(=O)O[C@H]1C(=O)[C@@]2(C)[C@H]([C@H](OC(=O)c3ccccc3)[C@]3(O)C[C@H](OC(=O)[C@H](O)[C@@H](NC(=O)c4ccccc4)c4ccccc4)C(C)=C1C3(C)C)[C@]1(OC(C)=O)CO[C@@H]1C[C@@H]2O [paclitaxel] |  |  | increased total and phospho-Eg5 levels | 91.26±1.64% | 0.184±0.003 μm/s | 0.98±0.002
